From US9732075B2, “Benzimidazole-proline derivatives” (IDORSIA PHARMACEUTICALS LTD, priority 2012, dated 2017)

Assays:
[1] = target: human orexin-1 receptor (Homo sapiens (Human), UniProt O43613); assay: In vitro assay: intracellular calcium measurements (FLIPR), antagonistic activity; assay type: cell-based; details: CHO cells expressing human orexin-1 receptor, orexin-A agonist, geometric mean, read-out: IC50 Ox1
Experimental: (§1) In Vitro Assay: Intracellular Calcium Measurements:
(§2) Chinese hamster ovary (CHO) cells expressing the human orexin-1 receptor and the human orexin-2 receptor, respectively, are grown in culture medium (Ham F-12 with L-Glutamine) containing 300 μg/ml G418, 100 U/ml penicillin, 100 μg/ml streptomycin and 10% heat inactivated fetal calf serum (FCS). The cells are seeded at 20,000 cells/well into 384-well black clear bottom sterile plates (Greiner). The seeded plates are incubated overnight at 37° C. in 5% CO2.
(§3) Human orexin-A as an agonist is prepared as 1 mM stock solution in MeOH: water (1:1), diluted in HBSS containing 0.1% bovine serum albumin (BSA), NaHCO3: 0.375 g/l and 20 mM HEPES for use in the assay at a final concentration of 3 nM.
(§4) Antagonists are prepared as 10 mM stock solution in DMSO, then diluted in 384-well plates using DMSO followed by a transfer of the dilutions into in HBSS containing 0.1% bovine serum albumin (BSA), NaHCO3: 0.375 g/l and 20 mM HEPES. On the day of the assay, 50 μl of staining buffer (HBSS containing 1% FCS, 20 mM HEPES, NaHCO3: 0.375 g/l, 5 mM probenecid (Sigma) and […] of the fluorescent calcium indicator fluo-4 AM (1 mM stock solution in DMSO, containing 10% pluronic) is added to each well. The 384-well cell-plates are incubated for 50 min at 37° C. in 5% CO2 followed by equilibration at RT for 30 min before measurement.
(§5) Within the Fluorescent Imaging Plate Reader (FLIPR Tetra, Molecular Devices), antagonists are added to the plate in a volume of 10 μl/well, incubated for 120 min and finally 10 μl/well of agonist is added. Fluorescence is measured for each well at 1 second intervals, and the height of each fluorescence peak is compared to the height of the fluorescence peak induced by an approximate EC70 (for example 5 nM) of orexin-A with vehicle in place of antagonist. The IC50 value (the concentration of compound needed to inhibit 50% of the agonistic response) is determined and may be normalized using the obtained IC50 value of a on-plate reference compound. Optimized conditions are achieved by adjustment of pipetting speed and cell splitting regime. The calculated IC50 values may fluctuate depending on the daily cellular assay performance. Fluctuations of this kind are known to those skilled in the art. Average IC50 values from several measurements are given as geometric mean values.

[2] = target: human orexin-2 receptor (Homo sapiens (Human), UniProt O43614); assay: as above; assay type: cell-based; details: CHO cells expressing human orexin-2 receptor, orexin-A agonist, geometric mean, read-out: IC50 Ox2
Experimental: as §1, §2, §3, §4, §5

human orexin-1 receptor, sequence (O43613 whole entry): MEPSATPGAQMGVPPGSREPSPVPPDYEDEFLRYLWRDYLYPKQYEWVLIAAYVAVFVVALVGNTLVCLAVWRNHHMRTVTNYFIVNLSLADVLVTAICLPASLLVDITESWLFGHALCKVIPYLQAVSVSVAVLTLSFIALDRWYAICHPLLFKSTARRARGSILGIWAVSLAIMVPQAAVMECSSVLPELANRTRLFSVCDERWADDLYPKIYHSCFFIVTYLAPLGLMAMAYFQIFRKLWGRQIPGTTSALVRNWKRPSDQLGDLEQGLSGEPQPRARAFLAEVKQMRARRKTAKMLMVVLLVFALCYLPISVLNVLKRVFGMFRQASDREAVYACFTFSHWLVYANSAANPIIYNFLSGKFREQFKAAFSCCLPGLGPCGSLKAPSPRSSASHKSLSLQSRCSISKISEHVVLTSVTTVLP
human orexin-2 receptor, sequence (O43614 whole entry): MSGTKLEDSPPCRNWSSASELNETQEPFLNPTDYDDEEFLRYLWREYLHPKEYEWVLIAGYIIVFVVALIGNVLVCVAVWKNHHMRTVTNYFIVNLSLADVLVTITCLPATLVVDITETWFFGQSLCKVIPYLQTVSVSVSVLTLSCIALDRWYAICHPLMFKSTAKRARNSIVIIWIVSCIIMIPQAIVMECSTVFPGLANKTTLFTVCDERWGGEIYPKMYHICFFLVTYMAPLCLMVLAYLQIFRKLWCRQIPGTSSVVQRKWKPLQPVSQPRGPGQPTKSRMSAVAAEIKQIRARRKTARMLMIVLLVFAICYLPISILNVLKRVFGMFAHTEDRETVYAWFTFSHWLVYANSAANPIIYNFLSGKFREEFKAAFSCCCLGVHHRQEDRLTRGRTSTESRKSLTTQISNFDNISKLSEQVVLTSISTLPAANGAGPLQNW

Row | IC50 [1] [nM] | IC50 [2] [nM] | Compound
1 | 17 | 17 | Cc1cc(C)c2nc(C3CCCN3C(=O)c3nc(C)sc3-c3cccc(Cl)c3)[nH]c2c1 (racemic) [Ex. 1.102]
2 | 136 | 56 | Cc1nc(C(=O)N2CCCC2c2nc3c4c(ccc3[nH]2)OCCO4)c(-c2cccc(Cl)c2)s1 (racemic) [Ex. 1.117]
3 | 24 | 2 | C=C1CC(c2nc3cc(OC)ccc3[nH]2)N(C(=O)c2cc(C)sc2-c2ccc(C)c(C)c2)C1 (racemic) [Ex. 6.71]
4 | 4 | 6 | C=C1CC(c2nc3cccc(SC)c3[nH]2)N(C(=O)c2cc(C)sc2-c2ccc(C)c(C)c2)C1 (racemic) [Ex. 6.72]
5 | 8 | 4 | C=C1CC(c2nc3cc(C)c(C)cc3[nH]2)N(C(=O)c2cc(C)sc2-c2ccc(C)c(C)c2)C1 (racemic) [Ex. 6.75]
6 | 13 | 19 | C=C1CC(c2nc3cc(Cl)c(C)cc3[nH]2)N(C(=O)c2cc(C)sc2-c2ccc(C)c(C)c2)C1 (racemic) [Ex. 6.80]
7 | 8 | 23 | C=C1CC(c2nc3c(OC)ccc(OC)c3[nH]2)N(C(=O)c2cc(C)sc2-c2ccc(C)c(C)c2)C1 (racemic) [Ex. 6.83]
8 | 22 | 20 | C=C1CC(c2nc3cc(OC)ccc3[nH]2)N(C(=O)c2nc(C3CC3)sc2-c2cccc(C)c2)C1 (racemic) [Ex. 6.86]
9 | 1 | 2 | C=C1CC(c2nc3cccc(SC)c3[nH]2)N(C(=O)c2nc(C3CC3)sc2-c2cccc(C)c2)C1 (racemic) [Ex. 6.87]
10 | 4 | 2 | C=C1CC(c2nc3c(C)c(C)ccc3[nH]2)N(C(=O)c2nc(C3CC3)sc2-c2cccc(C)c2)C1 (racemic) [Ex. 6.92]
11 | 9 | 2 | C=C1CC(c2nc3cc(Cl)c(C)cc3[nH]2)N(C(=O)c2nc(C3CC3)sc2-c2cccc(C)c2)C1 (racemic) [Ex. 6.95]
12 | 14 | 10 | C=C1CC(c2nc3cc(Cl)c(C(F)(F)F)cc3[nH]2)N(C(=O)c2nc(C3CC3)sc2-c2cccc(C)c2)C1 (racemic) [Ex. 6.97]
13 | 5 | 1 | C=C1CC(c2nc3cccc(Cl)c3[nH]2)N(C(=O)c2nc(C3CC3)sc2-c2cccc(C)c2)C1 (racemic) [Ex. 6.99]
14 | 21 | 75 | C=C1CN(C(=O)c2nc(C)sc2-c2ccc(C)c(C)c2)C(C)(c2nc3cc(OC)ccc3[nH]2)C1 (racemic) [Ex. 6.145]
15 | 16 | 33 | C=C1CN(C(=O)c2nc(C)sc2-c2ccc(Cl)cc2)C(C)(c2nc3cc(OC)ccc3[nH]2)C1 (racemic) [Ex. 6.146]
16 | 46 | 44 | C=C1CN(C(=O)c2ccccc2-c2ccc(F)c(C)c2)C(C)(c2nc3cc(OC)ccc3[nH]2)C1 (racemic) [Ex. 6.151]
17 | 32 | 38 | C=C1CN(C(=O)c2nc(C)sc2-c2ccccc2)C(C)(c2nc3cc(OC)ccc3[nH]2)C1 (racemic) [Ex. 6.154]
18 | 349 | 7 | COc1ccc2[nH]c([C@@H]3CCCN3C(=O)c3cc(C)ccc3-n3nccn3)nc2c1 [Ex. 1.2]
19 | 265 | 51 | Cc1ccc(-n2nccn2)c(C(=O)N2CCC[C@H]2c2nc3cc(Cl)ccc3[nH]2)c1 [Ex. 1.3]
20 | 241 | 30 | COc1cccc2nc([C@@H]3CCCN3C(=O)c3cc(C)ccc3-n3nccn3)[nH]c12 [Ex. 1.4]
21 | 56 | 23 | CSc1cccc2nc([C@@H]3CCCN3C(=O)c3cc(C)ccc3-n3nccn3)[nH]c12 [Ex. 1.5]
22 | 202 | 46 | Cc1ccc(-n2nccn2)c(C(=O)N2CCC[C@H]2c2nc3cccc(Cl)c3[nH]2)c1 [Ex. 1.6]
23 | 93 | 5 | CSc1ccc2[nH]c([C@@H]3CCCN3C(=O)c3cc(C)ccc3-n3nccn3)nc2c1 [Ex. 1.7]
24 | 337 | 69 | COc1ccc2[nH]c([C@@H]3CCCN3C(=O)c3nc(C)sc3-c3cccc(Cl)c3)nc2c1 [Ex. 1.9]
25 | 98 | 248 | Cc1nc(C(=O)N2CCC[C@H]2c2nc3cc(Cl)ccc3[nH]2)c(-c2cccc(Cl)c2)s1 [Ex. 1.10]
26 | 110 | 54 | COc1cccc2nc([C@@H]3CCCN3C(=O)c3nc(C)sc3-c3cccc(Cl)c3)[nH]c12 [Ex. 1.11]

Row | IC50 [1] [nM] | IC50 [2] [nM] | Compound
27 | 273 | 344 | Cc1nc(C(=O)N2CCC[C@H]2c2nc3c(O)cccc3[nH]2)c(-c2cccc(Cl)c2)s1 [Ex. 1.12]
28 | 15 | 24 | CSc1cccc2nc([C@@H]3CCCN3C(=O)c3nc(C)sc3-c3cccc(Cl)c3)[nH]c12 [Ex. 1.13]
29 | 34 | 32 | Cc1nc(C(=O)N2CCC[C@H]2c2nc3cccc(Cl)c3[nH]2)c(-c2cccc(Cl)c2)s1 [Ex. 1.14]
30 | 67 | 45 | CSc1ccc2[nH]c([C@@H]3CCCN3C(=O)c3nc(C)sc3-c3cccc(Cl)c3)nc2c1 [Ex. 1.15]
31 | 245 | 5 | COc1ccc2nc([C@@H]3CCCN3C(=O)c3cc(C)ccc3-n3nccn3)[nH]c2c1 [Ex. 1.16]
32 | 97 | 8 | CSc1ccc2nc([C@@H]3CCCN3C(=O)c3cc(C)ccc3-n3nccn3)[nH]c2c1 [Ex. 1.17]
33 | 935 | 153 | COc1ccc2nc([C@@H]3CCCN3C(=O)c3nc(C)sc3-c3ccc(Br)cc3)[nH]c2c1 [Ex. 1.18]
34 | 660 | 76 | COc1ccc2nc([C@@H]3CCCN3C(=O)c3nc(C)sc3-c3cccc(Cl)c3Cl)[nH]c2c1 [Ex. 1.19]
35 | 692 | 121 | COc1cccc(-c2sc(C)nc2C(=O)N2CCC[C@H]2c2nc3ccc(OC)cc3[nH]2)c1 [Ex. 1.20]
36 | 1180 | 149 | COc1ccc2nc([C@@H]3CCCN3C(=O)c3nc(C)sc3-c3cccc(F)c3)[nH]c2c1 [Ex. 1.21]
37 | 415 | 52 | COc1ccc2nc([C@@H]3CCCN3C(=O)c3nc(C)sc3-c3ccc(C)cc3)[nH]c2c1 [Ex. 1.22]
38 | 523 | 212 | COc1ccc2nc([C@@H]3CCCN3C(=O)c3nc(C4CC4)sc3-c3ccc(C)cc3)[nH]c2c1 [Ex. 1.23]
39 | 850 | 81 | CCc1ccc(-c2sc(C)nc2C(=O)N2CCC[C@H]2c2nc3ccc(OC)cc3[nH]2)cc1 [Ex. 1.24]
40 | 364 | 90 | COc1ccc2nc([C@@H]3CCCN3C(=O)c3nc(C)sc3-c3cccc(Cl)c3)[nH]c2c1 [Ex. 1.25]
41 | 125 | 22 | COc1ccc2nc([C@@H]3CCCN3C(=O)c3ccccc3-c3ccc(C)c(C)c3)[nH]c2c1 [Ex. 1.26]
42 | 1040 | 35 | COc1ccc2nc([C@@H]3CCCN3C(=O)c3ccccc3-n3nccn3)[nH]c2c1 [Ex. 1.27]
43 | 105 | – | Cc1nc(C(=O)N2CCCC2c2nc3cc(F)c(Cl)cc3[nH]2)c(-c2cccc(Cl)c2)s1 (stereo not shown) [Ex. 1.98]
44 | – | 4 | CO[C@H]1CN(C(=O)c2cc(C)c(C)cc2-n2nccn2)C(C)(c2nc3c(C)c(Cl)ccc3[nH]2)C1 (stereo partly shown) [Ex. 3.48]
45 | 2 | – | Cc1ccc(-n2nccn2)c(C(=O)N2CC[C@H](C)[C@H]2c2nc3c(C)c(Cl)ccc3[nH]2)c1F [Ex. 4.68]
46 | – | 635 | Cc1nc(C(=O)N2CC[C@H](C)[C@H]2c2nc3cc(C(F)(F)F)ccc3[nH]2)c(-c2ccc(C)c(C)c2)s1 [Ex. 4.145]
47 | – | 80 | Cc1ccc(-c2sc(C)nc2C(=O)N2CC[C@H](C)[C@H]2c2nc3c(C(F)(F)F)cccc3[nH]2)cc1 [Ex. 4.153]
48 | 117 | – | C[C@@]1(c2nc3cc(F)c(Br)cc3[nH]2)CCCN1C(=O)c1cc(F)ccc1-n1nccn1 [Ex. 5.126]
49 | – | 6 | Cc1cc(C(=O)N2CCC[C@@]2(C)c2nc3cc(C(F)(F)F)c(Cl)cc3[nH]2)c(-n2nccn2)cc1C [Ex. 5.137]
50 | – | 8 | Cc1nc(C(=O)N2CCC[C@@]2(C)c2nc3c(C)c(C)c(Br)cc3[nH]2)c(-c2cc(F)cc(F)c2)s1 [Ex. 5.274]
51 | – | 8 | Cc1ccc(-c2ncccn2)c(C(=O)N2CCC[C@@]2(C)c2nc3cc(C(F)(F)F)c(Cl)cc3[nH]2)c1 [Ex. 5.279]
52 | 87 | – | Cc1ccc(-c2ncccn2)c(C(=O)N2CCC[C@@]2(C)c2nc3ccc(F)c(F)c3[nH]2)c1 [Ex. 5.283]
